According to patent US8765728B2, “[1,5]-diazocin derivatives” (MelliTech, priority 2009, dated 2014):

What follows are molecules tested on Min6 cell (assay: Insulin secretion response of beta cell line to formula I compounds (insulin ELISA)). Details: rank according to % increase versus control at most effective dose.
Format: cell-based
Summary of the method: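 After compound or vehicle exposure, Min6 cells were held 2 h in glucose-free medium and preincubated 30 min at 37° C in glucose-free KRBH (pH 7.4, 0.1% BSA). They were then incubated 30 min at 37° C in KRBH with varying glucose. Secreted insulin and acid-ethanol-extracted intracellular insulin were measured by ELISA.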

SMILES	Insulin secretion (Min6 cell) Range 1 to 5
O=C(CN1CCC(=O)N(C2CC2)Cc2cc(F)ccc21)c1ccc(Cl)cc1 [Compound 44, 1-(2-(4-chlorophenyl)-2-oxoethyl)-5-cyclopropyl-8-fluoro-2,3,5,6-tetrahydrobenzo[b][1,5]diazocin-4(1H)-one]	1 (1: 90-110% of control)
COc1ccc2c(c1)CN(C1CC1)C(=O)CCN2CC(=O)c1ccc(F)c(F)c1 [Compound 24, 5-cyclopropyl-1-(2-(3,4-difluorophenyl)-2-oxoethyl)-8-methoxy-2,3,5,6-tetrahydrobenzo[b][1,5]diazocin-4(1H)-one]	2 (2: 110-120% of control)
O=C1CCN(CC(O)c2ccc(F)cc2)c2ccc(F)cc2CN1C1CC1 (stereo not shown) [Compound 46, 5-cyclopropyl-8-fluoro-1-(2-(4-fluorophenyl)-2-hydroxyethyl)-2,3,5,6-tetrahydrobenzo[b][1,5]diazocin-4(1H)-one]	2 (2: 110-120% of control)
O=C1CCN(C(=O)Cc2ccc(F)cc2)c2ncccc2CN1CC1CC1 [Compound 150, 5-(cyclopropylmethyl)-1-(2-(4-fluorophenyl)acetyl)-2,3,5,6-tetrahydropyrido[2,3-b][1,5]diazocin-4(1H)-one]	4 (4: 140-170% of control)
O=C1CCN(CC(O)COc2ccccc2)c2ccc(Cl)cc2CN1C1CC1 (stereo not shown) [Compound 81, 8-chloro-5-cyclopropyl-1-(2-hydroxy-3-phenoxypropyl)-2,3,5,6-tetrahydrobenzo[b][1,5]diazocin-4(1H)-one]	1 (1: 90-110% of control)
COc1ccc2c(c1)CN(C1CC1)C(=O)CCN2CC(O)c1ccc(F)c(F)c1 (stereo not shown) [Compound 34, 5-cyclopropyl-1-(2-(3,4-difluorophenyl)-2-hydroxyethyl)-8-methoxy-2,3,5,6-tetrahydrobenzo[b][1,5]diazocin-4(1H)-one]	1 (1: 90-110% of control)
O=C(CN1CCC(=O)N(C2CC2)Cc2cc(F)ccc21)c1ccc(OC(F)(F)F)cc1 [Compound 42, 5-cyclopropyl-8-fluoro-1-(2-oxo-2-(4-(trifluoromethoxy)phenyl)ethyl)-2,3,5,6-tetrahydrobenzo[b][1,5]diazocin-4(1H)-one]	1 (1: 90-110% of control)
COc1ccc2c(c1)CN(C1CC1)C(=O)CCN2 [Compound 1, 5-cyclopropyl-8-methoxy-2,3,5,6-tetrahydrobenzo[b][1,5]diazocin-4(1H)-one]	2 (2: 110-120% of control)
O=C(CN1CCC(=O)N(C2CC2)Cc2cc(Cl)ccc21)c1ccc(OC(F)F)cc1 [Compound 143, 8-chloro-5-cyclopropyl-1-(2-(4-(difluoromethoxy)phenyl)-2-oxoethyl)-2,3,5,6-tetrahydrobenzo[b][1,5]diazocin-4(1H)-one]	2 (2: 110-120% of control)
COc1ccc(C(O)CN2CCC(=O)N(C3CC3)Cc3cc(OC)ccc32)cc1 (stereo not shown) [Compound 32, 5-cyclopropyl-1-(2-hydroxy-2-(4-methoxyphenyl)ethyl)-8-methoxy-2,3,5,6-tetrahydrobenzo[b][1,5]diazocin-4(1H)-one]	3 (3: 120-140% of control)
COc1ccc2c(c1)CN(C1CC1)C(=O)CCN2CC(O)c1ccc2c(c1)OCCO2 (stereo not shown) [Compound 29, 5-cyclopropyl-1-(2-(2,3-dihydrobenzo[b][1,4]dioxin-6-yl)-2-hydroxyethyl)-8-methoxy-2,3,5,6-tetrahydrobenzo[b][1,5]diazocin-4(1H)-one]	2 (2: 110-120% of control)
Cc1noc(C)c1C(=O)N1CCC(=O)N(C2CC2)Cc2cc(OC(F)F)ccc21 [Compound 115, 5-cyclopropyl-8-(difluoromethoxy)-1-(3,5-dimethylisoxazole-4-carbonyl)-2,3,5,6-tetrahydrobenzo[b][1,5]diazocin-4(1H)-one]	1 (1: 90-110% of control)
O=C1CCN(C[C@@H](O)COc2cccc(F)c2)c2ccc(OC(F)F)cc2CN1C1CC1 [Compound 117, (R)-5-cyclopropyl-8-(difluoromethoxy)-1-(3-(3-fluorophenoxy)-2-hydroxypropyl)-2,3,5,6-tetrahydrobenzo[b][1,5]diazocin-4(1H)-one]	1 (1: 90-110% of control)
O=C1CCNc2ccc(OC(F)F)cc2CN1C1CC1 [Compound 124, 5-cyclopropyl-8-(difluoromethoxy)-2,3,5,6-tetrahydrobenzo[b][1,5]diazocin-4(1H)-one]	1 (1: 90-110% of control)
O=C1CCN(C[C@@H](O)COc2ccc(Cl)cc2)c2ccc3c(c2CN1C1CC1)OCCO3 [Compound 126, (R)-7-(3-(4-chlorophenoxy)-2-hydroxypropyl)-11-cyclopropyl-2,3,8,9,11,12-hexahydro-[1,4]dioxino[2′,3′:3,4]benzo[1,2-b][1,5]diazocin-10(7H)-one]	2 (2: 110-120% of control)
O=C1CCN(CC(O)c2cccc(F)c2)c2ccc(Cl)cc2CN1C1CC1 (stereo not shown) [Compound 86, 8-chloro-5-cyclopropyl-1-(2-(3-fluorophenyl)-2-hydroxyethyl)-2,3,5,6-tetrahydrobenzo[b][1,5]diazocin-4(1H)-one]	2 (2: 110-120% of control)

SMILES	Insulin secretion (Min6 cell) Range 1 to 5
O=C(Cc1ccc(F)cc1)N1CCC(=O)N(C2CC2)Cc2cccnc21 [Compound 76, 5-cyclopropyl-1-(2-(4-fluorophenyl)acetyl)-2,3,5,6-tetrahydropyrido[2,3-b][1,5]diazocin-4(1H)-one]	5 (5: >170% of control)
O=C1CCNc2cnccc2CN1C1CC1 [Compound 62, 5-cyclopropyl-2,3,5,6-tetrahydropyrido[3,4-b][1,5]diazocin-4(1H)-one]	2 (2: 110-120% of control)
O=C1CCN(CC(O)c2ccc(OC(F)(F)F)cc2)c2ccc(F)cc2CN1C1CC1 (stereo not shown) [Compound 48, 5-cyclopropyl-8-fluoro-1-(2-hydroxy-2-(4-(trifluoromethoxy)phenyl)ethyl)-2,3,5,6-tetrahydrobenzo[b][1,5]diazocin-4(1H)-one]	2 (2: 110-120% of control)
COc1cccc(C(O)CN2CCC(=O)N(C3CC3)Cc3cc(F)ccc32)c1 (stereo not shown) [Compound 58, 5-cyclopropyl-8-fluoro-1-(2-hydroxy-2-(3-methoxyphenyl)ethyl)-2,3,5,6-tetrahydrobenzo[b][1,5]diazocin-4(1H)-one]	2 (2: 110-120% of control)
O=C(c1cccnc1)N1CCC(=O)N(C2CC2)Cc2cc(F)ccc21 [Compound 70, 5-cyclopropyl-8-fluoro-1-nicotinoyl-2,3,5,6-tetrahydrobenzo[b][1,5]diazocin-4(1H)-one]	1 (1: 90-110% of control)
COc1ccc2c(c1OC(F)F)CN(C1CC1)C(=O)CCN2C(=O)c1cc(C)no1 [Compound 140, 5-cyclopropyl-7-(difluoromethoxy)-8-methoxy-1-(3-methylisoxazole-5-carbonyl)-2,3,5,6-tetrahydrobenzo[b][1,5]diazocin-4(1H)-one]	3 (3: 120-140% of control)
C=CCOc1c(OC)ccc2c1CN(CC)C(=O)CCN2CC(O)COc1ccccc1 (stereo not shown) [Compound 167, 7-(allyloxy)-5-ethyl-1-(2-hydroxy-3-phenoxypropyl)-8-methoxy-2,3,5,6-tetrahydrobenzo[b][1,5]diazocin-4(1H)-one]	2 (2: 110-120% of control)
O=C(c1ccc(F)cc1)N1CCC(=O)N(C2CC2)Cc2cccnc21 [Compound 75, 5-cyclopropyl-1-(4-fluorobenzoyl)-2,3,5,6-tetrahydropyrido[2,3-b][1,5]diazocin-4(1H)-one]	4 (4: 140-170% of control)
O=C(CN1CCC(=O)N(C2CC2)Cc2c1ccc1c2OCCO1)c1cccc(F)c1 [Compound 93, 11-cyclopropyl-7-[2-(3-fluorophenyl)-2-oxoethyl]-2,3,8,9,11,12-hexahydro[1,4]dioxino[2,3-h][1,5]benzodiazocin-10(7H)-one]	1 (1: 90-110% of control)
O=C(c1cnccn1)N1CCC(=O)N(C2CC2)Cc2c1ccc1c2OCCO1 [Compound 128, 11-cyclopropyl-7-(pyrazine-2-carbonyl)-2,3,8,9,11,12-hexahydro-[1,4]dioxino[2′,3′:3,4]benzo[1,2-b][1,5]diazocin-10(7H)-one]	1 (1: 90-110% of control)
O=C1CCNc2ccc(Cl)cc2CN1C1CC1 [Compound 78, 8-chloro-5-cyclopropyl-2,3,5,6-tetrahydrobenzo[b][1,5]diazocin-4(1H)-one]	3 (3: 120-140% of control)
O=C(CN1CCC(=O)N(C2CC2)Cc2c1ccc1c2OCCO1)c1ccc(OC(F)F)cc1 [Compound 144, 11-cyclopropyl-7-(2-(4-(difluoromethoxy)phenyl)-2-oxoethyl)-2,3,8,9,11,12-hexahydro-[1,4]dioxino[2′,3′:3,4]benzo[1,2-b][1,5]diazocin-10(7H)-one]	1 (1: 90-110% of control)
COc1ccc2c(c1)CN(C1CC1)C(=O)CCN2C(=O)c1cc(C)on1 [Compound 4, 5-cyclopropyl-8-methoxy-1-(5-methylisoxazole-3-carbonyl)-2,3,5,6-tetrahydrobenzo[b][1,5]diazocin-4(1H)-one]	2 (2: 110-120% of control)
COc1ccc(OCC(O)CN2CCC(=O)N(C3CC3)Cc3cc(F)ccc32)cc1 (stereo not shown) [Compound 53, 5-cyclopropyl-8-fluoro-1-(2-hydroxy-3-(4-methoxyphenoxy)propyl)-2,3,5,6-tetrahydrobenzo[b][1,5]diazocin-4(1H)-one]	1 (1: 90-110% of control)
Cn1cnc(S(=O)(=O)N2CCC(=O)N(C3CC3)Cc3c2ccc2c3OCCO2)c1 [Compound 125, 11-cyclopropyl-7-((1-methyl-1H-imidazol-4-yl)sulfonyl)-2,3,8,9,11,12-hexahydro-[1,4]dioxino[2′,3′:3,4]benzo[1,2-b][1,5]diazocin-10(7H)-one]	1 (1: 90-110% of control)
